According to the kinase profiling compilation of Christmann-Franck et al. (2016):

Assays:
Assay in all cases: split-luciferase competition binding
[1] = biological target: AKT1 (human) (UniProt P31749); settings: compound 10.0 µM
[2] = biological target: PKN1 (human) (UniProt Q16512); settings: compound 10.0 µM
[3] = biological target: RPS6KA2 KD1 (human) (UniProt Q15349); settings: compound 10.0 µM
[4] = biological target: PRKCD (human) (UniProt Q05655); settings: compound 10.0 µM
[5] = biological target: PRKCQ (human) (UniProt Q04759); settings: compound 10.0 µM
[6] = biological target: SGK2 (human) (UniProt Q9HBY8); settings: compound 10.0 µM
[7] = biological target: PRKCG (human) (UniProt P05129); settings: compound 10.0 µM
[8] = biological target: SGK3 (human) (UniProt Q96BR1); settings: compound 10.0 µM
[9] = biological target: AKT2 (human) (UniProt P31751); settings: compound 10.0 µM
[10] = biological target: RPS6KA4 KD1 (human) (UniProt O75676); settings: compound 10.0 µM
[11] = biological target: AURKA (human) (UniProt O14965); settings: compound 10.0 µM
[12] = biological target: AURKB (human) (UniProt Q96GD4); settings: compound 10.0 µM
[13] = biological target: PDPK1 (human) (UniProt O15530); settings: compound 10.0 µM
[14] = biological target: PRKACB (human) (UniProt P22694); settings: compound 10.0 µM
[15] = biological target: RPS6KA5 KD1 (human) (UniProt O75582); settings: compound 10.0 µM
[16] = test system: PRKACA (mouse); settings: compound 10.0 µM; accession and sequence are those of the human protein
[17] = biological target: RPS6KA3 KD1 (human) (UniProt P51812); settings: compound 10.0 µM
[18] = biological target: DMPK (human) (UniProt Q09013); settings: compound 10.0 µM
[19] = biological target: RPS6KA6 KD1 (human) (UniProt Q9UK32); settings: compound 10.0 µM
[20] = biological target: PRKCE (human) (UniProt Q02156); settings: compound 10.0 µM
[21] = biological target: PRKCI (human) (UniProt P41743); settings: compound 10.0 µM
[22] = biological target: RPS6KA1 KD1 (human) (UniProt Q15418); settings: compound 10.0 µM
[23] = biological target: AURKC (human) (UniProt Q9UQB9); settings: compound 10.0 µM
[24] = biological target: PRKX (human) (UniProt P51817); settings: compound 10.0 µM
[25] = biological target: AKT3 (human) (UniProt Q9Y243); settings: compound 10.0 µM
[26] = biological target: PRKCH (human) (UniProt P24723); settings: compound 10.0 µM
[27] = biological target: STK32B (human) (UniProt Q9NY57); settings: compound 10.0 µM
STK32B (human), sequence (Q9NY57 whole entry, looked up): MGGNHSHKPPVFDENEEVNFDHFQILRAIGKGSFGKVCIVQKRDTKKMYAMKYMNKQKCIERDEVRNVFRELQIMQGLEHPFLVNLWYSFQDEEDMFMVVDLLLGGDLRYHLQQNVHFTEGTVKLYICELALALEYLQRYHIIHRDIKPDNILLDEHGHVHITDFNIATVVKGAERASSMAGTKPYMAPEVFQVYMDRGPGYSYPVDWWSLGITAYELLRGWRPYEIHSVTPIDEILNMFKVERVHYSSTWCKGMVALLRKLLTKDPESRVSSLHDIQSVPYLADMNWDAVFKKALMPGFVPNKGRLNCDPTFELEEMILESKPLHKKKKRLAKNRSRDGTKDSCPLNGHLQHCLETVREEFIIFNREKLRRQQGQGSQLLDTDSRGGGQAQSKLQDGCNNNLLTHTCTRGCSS

PRKCE (human), sequence (Q02156 whole entry, looked up): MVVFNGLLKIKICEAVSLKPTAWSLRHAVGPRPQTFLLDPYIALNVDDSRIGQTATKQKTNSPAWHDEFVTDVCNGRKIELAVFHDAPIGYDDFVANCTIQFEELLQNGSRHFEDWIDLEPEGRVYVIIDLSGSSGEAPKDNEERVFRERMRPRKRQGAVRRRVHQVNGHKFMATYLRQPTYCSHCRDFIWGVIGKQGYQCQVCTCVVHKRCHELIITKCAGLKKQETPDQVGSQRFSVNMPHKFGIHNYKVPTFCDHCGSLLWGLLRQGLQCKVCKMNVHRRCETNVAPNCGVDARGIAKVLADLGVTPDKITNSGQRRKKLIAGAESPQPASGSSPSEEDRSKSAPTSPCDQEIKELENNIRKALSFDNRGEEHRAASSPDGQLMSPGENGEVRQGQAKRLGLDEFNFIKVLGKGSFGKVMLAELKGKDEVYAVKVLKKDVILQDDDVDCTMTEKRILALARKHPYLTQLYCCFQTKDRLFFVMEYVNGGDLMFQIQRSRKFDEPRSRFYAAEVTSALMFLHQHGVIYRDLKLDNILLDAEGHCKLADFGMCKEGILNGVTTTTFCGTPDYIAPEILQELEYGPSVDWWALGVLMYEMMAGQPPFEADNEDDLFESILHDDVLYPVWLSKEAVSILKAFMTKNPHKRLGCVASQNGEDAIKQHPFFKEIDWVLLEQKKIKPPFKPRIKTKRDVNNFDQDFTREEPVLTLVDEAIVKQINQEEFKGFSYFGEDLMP
AURKA (human), sequence (O14965 whole entry, looked up): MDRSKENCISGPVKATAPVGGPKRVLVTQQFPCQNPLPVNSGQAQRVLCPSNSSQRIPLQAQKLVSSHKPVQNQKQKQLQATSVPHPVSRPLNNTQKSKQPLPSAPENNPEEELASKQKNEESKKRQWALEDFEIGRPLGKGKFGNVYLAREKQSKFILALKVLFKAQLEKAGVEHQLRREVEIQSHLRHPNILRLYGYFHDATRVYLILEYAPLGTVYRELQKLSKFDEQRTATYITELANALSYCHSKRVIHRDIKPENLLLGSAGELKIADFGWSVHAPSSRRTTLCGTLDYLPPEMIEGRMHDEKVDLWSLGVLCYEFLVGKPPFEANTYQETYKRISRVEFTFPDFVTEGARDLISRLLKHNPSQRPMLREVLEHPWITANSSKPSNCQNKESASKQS
PRKCH (human), sequence (P24723 whole entry, looked up): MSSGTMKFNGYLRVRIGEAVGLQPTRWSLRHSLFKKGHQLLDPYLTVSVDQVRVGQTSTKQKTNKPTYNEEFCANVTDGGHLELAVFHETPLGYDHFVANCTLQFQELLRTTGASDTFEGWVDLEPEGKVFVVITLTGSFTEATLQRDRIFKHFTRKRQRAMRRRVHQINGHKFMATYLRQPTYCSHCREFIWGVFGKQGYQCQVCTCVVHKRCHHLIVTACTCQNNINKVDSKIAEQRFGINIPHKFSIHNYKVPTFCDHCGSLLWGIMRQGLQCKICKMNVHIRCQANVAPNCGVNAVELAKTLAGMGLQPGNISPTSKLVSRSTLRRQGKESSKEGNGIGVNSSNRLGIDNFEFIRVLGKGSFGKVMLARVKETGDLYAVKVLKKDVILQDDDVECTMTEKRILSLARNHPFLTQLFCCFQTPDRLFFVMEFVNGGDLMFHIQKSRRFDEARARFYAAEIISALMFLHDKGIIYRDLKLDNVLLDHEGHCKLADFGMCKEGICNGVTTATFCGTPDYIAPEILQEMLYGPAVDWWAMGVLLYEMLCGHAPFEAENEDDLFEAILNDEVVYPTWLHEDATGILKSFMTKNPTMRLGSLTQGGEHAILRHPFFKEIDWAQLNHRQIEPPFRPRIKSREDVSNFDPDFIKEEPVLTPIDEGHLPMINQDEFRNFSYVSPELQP
AURKB (human), sequence (Q96GD4 whole entry, looked up): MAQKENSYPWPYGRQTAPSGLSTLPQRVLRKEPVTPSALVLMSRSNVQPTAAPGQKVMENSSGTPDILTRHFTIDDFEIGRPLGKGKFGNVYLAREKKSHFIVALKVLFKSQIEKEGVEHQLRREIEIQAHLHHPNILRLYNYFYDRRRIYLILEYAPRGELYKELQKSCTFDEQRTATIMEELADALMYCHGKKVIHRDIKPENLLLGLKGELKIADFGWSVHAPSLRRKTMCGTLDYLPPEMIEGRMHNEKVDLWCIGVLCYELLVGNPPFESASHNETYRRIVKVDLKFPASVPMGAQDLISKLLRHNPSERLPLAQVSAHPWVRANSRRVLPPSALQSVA
PRKCI (human), sequence (P41743 whole entry, looked up): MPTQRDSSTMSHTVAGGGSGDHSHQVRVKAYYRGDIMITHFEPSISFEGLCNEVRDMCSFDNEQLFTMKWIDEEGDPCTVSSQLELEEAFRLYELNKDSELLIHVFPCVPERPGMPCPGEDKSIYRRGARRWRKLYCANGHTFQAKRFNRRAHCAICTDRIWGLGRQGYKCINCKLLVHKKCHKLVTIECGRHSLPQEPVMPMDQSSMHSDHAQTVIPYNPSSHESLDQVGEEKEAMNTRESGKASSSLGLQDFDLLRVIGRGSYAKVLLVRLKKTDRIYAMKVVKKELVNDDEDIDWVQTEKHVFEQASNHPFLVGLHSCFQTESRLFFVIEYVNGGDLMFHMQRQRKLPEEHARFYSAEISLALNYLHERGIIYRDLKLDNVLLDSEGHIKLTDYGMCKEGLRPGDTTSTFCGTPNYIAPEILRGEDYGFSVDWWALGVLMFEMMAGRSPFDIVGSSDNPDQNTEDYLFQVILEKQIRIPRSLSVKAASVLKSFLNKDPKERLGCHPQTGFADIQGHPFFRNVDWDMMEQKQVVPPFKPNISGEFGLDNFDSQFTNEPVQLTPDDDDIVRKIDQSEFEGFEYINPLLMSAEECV
AURKC (human), sequence (Q9UQB9 whole entry, looked up): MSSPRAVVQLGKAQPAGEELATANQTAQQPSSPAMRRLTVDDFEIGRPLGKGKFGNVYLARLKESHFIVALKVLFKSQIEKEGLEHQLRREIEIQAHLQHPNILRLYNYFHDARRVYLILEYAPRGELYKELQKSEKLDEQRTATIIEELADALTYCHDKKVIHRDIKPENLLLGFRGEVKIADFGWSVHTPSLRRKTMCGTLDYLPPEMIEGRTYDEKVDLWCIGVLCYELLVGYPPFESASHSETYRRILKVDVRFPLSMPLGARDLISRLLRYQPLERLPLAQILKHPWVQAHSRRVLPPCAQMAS
AKT2 (human), sequence (P31751 whole entry, looked up): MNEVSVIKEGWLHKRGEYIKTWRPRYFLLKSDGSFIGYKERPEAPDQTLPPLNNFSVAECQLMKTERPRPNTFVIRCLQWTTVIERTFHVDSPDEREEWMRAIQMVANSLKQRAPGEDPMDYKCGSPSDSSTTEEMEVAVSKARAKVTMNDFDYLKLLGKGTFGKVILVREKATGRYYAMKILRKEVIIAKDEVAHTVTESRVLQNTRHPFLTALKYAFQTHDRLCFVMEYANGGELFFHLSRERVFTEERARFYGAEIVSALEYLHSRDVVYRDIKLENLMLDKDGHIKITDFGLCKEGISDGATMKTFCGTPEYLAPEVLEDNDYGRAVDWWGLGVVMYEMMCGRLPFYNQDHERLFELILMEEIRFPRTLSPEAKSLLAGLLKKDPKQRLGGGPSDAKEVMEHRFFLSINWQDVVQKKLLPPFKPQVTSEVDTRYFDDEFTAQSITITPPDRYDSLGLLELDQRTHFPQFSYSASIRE
RPS6KA6 KD1 (human), sequence (Q9UK32 whole entry, looked up): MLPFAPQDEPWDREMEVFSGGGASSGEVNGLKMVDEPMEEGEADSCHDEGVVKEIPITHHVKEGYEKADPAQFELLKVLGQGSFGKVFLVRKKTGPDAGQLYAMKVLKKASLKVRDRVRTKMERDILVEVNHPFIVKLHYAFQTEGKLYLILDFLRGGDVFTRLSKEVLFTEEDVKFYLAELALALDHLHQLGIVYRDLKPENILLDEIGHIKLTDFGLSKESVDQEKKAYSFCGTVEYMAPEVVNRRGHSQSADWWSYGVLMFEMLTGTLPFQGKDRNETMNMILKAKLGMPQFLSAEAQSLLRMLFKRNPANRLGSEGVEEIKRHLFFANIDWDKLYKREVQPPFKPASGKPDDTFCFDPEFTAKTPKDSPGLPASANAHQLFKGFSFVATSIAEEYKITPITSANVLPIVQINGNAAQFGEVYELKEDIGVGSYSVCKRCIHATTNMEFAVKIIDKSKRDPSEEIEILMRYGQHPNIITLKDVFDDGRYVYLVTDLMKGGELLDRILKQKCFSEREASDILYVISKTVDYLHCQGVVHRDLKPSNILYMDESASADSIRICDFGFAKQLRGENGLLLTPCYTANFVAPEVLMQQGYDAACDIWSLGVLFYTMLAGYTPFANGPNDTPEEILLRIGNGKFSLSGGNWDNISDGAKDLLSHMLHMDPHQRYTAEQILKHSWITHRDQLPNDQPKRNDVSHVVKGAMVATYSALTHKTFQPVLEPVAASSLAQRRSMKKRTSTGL

Row | inhibition [1] [%] | inhibition [2] [%] | inhibition [3] [%] | inhibition [4] [%] | inhibition [5] [%] | inhibition [6] [%] | inhibition [7] [%] | inhibition [8] [%] | inhibition [9] [%] | inhibition [10] [%] | inhibition [11] [%] | inhibition [12] [%] | inhibition [13] [%] | inhibition [14] [%] | inhibition [15] [%] | inhibition [16] [%] | inhibition [17] [%] | inhibition [18] [%] | inhibition [19] [%] | inhibition [20] [%] | SMILES | further results
1 | 6 | 10 | 32 | 0 | 20 | 17 | 3 | 12 | 0 | 23 | 41 | 71 | 0 | 5 | 43 | 16 | 12 | 13 | 21 | 0 | COc1cc2nccc(Oc3ccc(NC(=O)Nc4ccc(F)cc4F)c(F)c3)c2cc1OC | inhibition [21]: 0%; inhibition [22]: 0%; inhibition [23]: 80%; inhibition [24]: 12%; inhibition [25]: 0%; inhibition [26]: 0%; inhibition [27]: 0%
2 | 1 | 1 | 2 | 15 | 35 | 0 | 0 | 0 | 0 | 23 | 12 | 0 | 0 | 0 | 16 | 5 | 8 | 6 | 2 | 0 | CN1CC[C@H](c2c(O)cc(O)c3c(=O)cc(-c4ccccc4Cl)oc23)[C@H](O)C1 | inhibition [21]: 0%; inhibition [22]: 19%; inhibition [23]: 28%; inhibition [24]: 8%; inhibition [25]: 0%; inhibition [26]: 0%; inhibition [27]: 11%
3 | 0 | 0 | 0 | 2 | 0 | 0 | 0 | 0 | 0 | 0 | 0 | 0 | 0 | 0 | 0 | 3 | 0 | 0 | 0 | 0 | N#C/C(=C\c1ccc(O)c(O)c1)C(=O)NCc1ccccc1 | inhibition [21]: 0%; inhibition [22]: 0%; inhibition [23]: 10%; inhibition [24]: 0%; inhibition [25]: 0%; inhibition [26]: 0%; inhibition [27]: 0%
4 | 19 | 4 | 14 | 2 | 0 | 10 | 5 | 0 | 0 | 4 | 0 | 26 | 0 | 11 | 13 | 9 | 12 | 11 | 19 | 10 | O=C1Nc2ccc(I)cc2/C1=C/c1cc(Br)c(O)c(Br)c1 | inhibition [21]: 0%; inhibition [22]: 23%; inhibition [23]: 0%; inhibition [24]: 11%; inhibition [25]: 0%; inhibition [26]: 10%; inhibition [27]: 0%
5 | 0 | 0 | 0 | 0 | 2 | 0 | 9 | 3 | 0 | 0 | 0 | 27 | 2 | 0 | 0 | 1 | 0 | 13 | 0 | 7 | COc1cc2ncnc(Nc3ccc(F)c(Cl)c3)c2cc1OCCCN1CCOCC1 | inhibition [21]: 0%; inhibition [22]: 0%; inhibition [23]: 19%; inhibition [24]: 7%; inhibition [25]: 0%; inhibition [26]: 0%; inhibition [27]: 0%
6 | 0 | 0 | 0 | 9 | 0 | 0 | 0 | 0 | 0 | 0 | 6 | 12 | 0 | 5 | 0 | 0 | 0 | 0 | 9 | 4 | O=C1NC(=O)C(c2ccccc2[N+](=O)[O-])=C1Nc1ccc(O)c(Cl)c1 | inhibition [21]: 0%; inhibition [22]: 7%; inhibition [23]: 23%; inhibition [24]: 2%; inhibition [25]: 0%; inhibition [26]: 2%; inhibition [27]: 0%
7 | 0 | 3 | 4 | 0 | 0 | 0 | 0 | 0 | 0 | 0 | 0 | 8 | 0 | 0 | 0 | 6 | 0 | 3 | 0 | 0 | CN1CCC(Nc2ncc3ncnc(Nc4ccc(F)c(Cl)c4)c3n2)CC1 | inhibition [21]: 0%; inhibition [22]: 0%; inhibition [23]: 10%; inhibition [24]: 6%; inhibition [25]: 0%; inhibition [26]: 0%; inhibition [27]: 0%
8 | 2 | 1 | 1 | 0 | 0 | 0 | 0 | 0 | 0 | 0 | 0 | 13 | 0 | 0 | 0 | 3 | 0 | 0 | 0 | 0 | O=S(=O)(c1cccc2c(Cl)cccc12)N1CCCNCC1 | inhibition [21]: 1%; inhibition [22]: 0%; inhibition [23]: 0%; inhibition [24]: 25%; inhibition [25]: 0%; inhibition [26]: 0%; inhibition [27]: 0%
9 | 11 | 0 | 3 | 0 | 0 | 0 | 0 | 0 | 0 | 0 | 6 | 0 | 3 | 0 | 0 | 0 | 2 | 0 | 0 | 0 | CS(=O)c1ccc(-c2nc(-c3ccc(F)cc3)c(-c3ccncc3)[nH]2)cc1 (stereo not drawn) | inhibition [21]: 0%; inhibition [22]: 0%; inhibition [23]: 0%; inhibition [24]: 0%; inhibition [25]: 0%; inhibition [26]: 5%; inhibition [27]: 36%
